Reference: patent publication US20100021427A1, “Use of Antiviral Peptides For Treatment of Infections Caused by Drug-Resistant HIV” (Tianjin FusoGen Pharmaceuticals, Inc., priority 2008, published 2010)

Key:
92TH009 (clade E, R5) = test: Primary HIV-1 isolate infection of PBMC, p24 ELISA; assay type: cell-based; details: p24 production, 7 days post infection
Method: (§1) The inhibitory activity of FS-01 against primary HIV-1 isolates was determined as previously described in (Jiang, S., et al. ANTIMICROB. AGENTS CHEMOTHER. 2004; 48: 4349-4359. The peripheral blood mononuclear cells (PBMC) were isolated from the blood of healthy donors using a standard density gradient (Histopaque-1077, Sigma) centrifugation. The cells were plated in 75-cm plastic flasks and incubated at 37° C. for 2 h. The nonadherent cells were collected and resuspended at 5×10^5/mL in RPMI 1640 medium containing 10% FBS, 5 μg of phytohemagglutinin (PHA)/mL, and 100 U of interleukin-2/mL, followed by incubation at 37° C. for 3 days. The PHA-stimulated cells were infected with the corresponding primary HIV-1 isolates at a multiplicity of infection (MOI) of 0.01 in the absence or presence of FS-01 at graded concentrations. Culture media were changed every 3 days. The supernatants were collected 7 days post infection and tested for p24 antigen by ELISA. The percent inhibition of p24 production and IC50/IC90 values were calculated.

94UG103 (clade A, X4R5) = test: Primary HIV-1 isolate infection of PBMC, p24 ELISA; assay type: cell-based; details: p24 production, 7 days post infection
Method: as §1

93BR020 (clade F, X4R5) = test: Primary HIV-1 isolate infection of PBMC, p24 ELISA; assay type: cell-based; details: p24 production, 7 days post infection
Method: as §1

92UG001 (clade D, X4R5) = test: Primary HIV-1 isolate infection of PBMC, p24 ELISA; assay type: cell-based; details: p24 production, 7 days post infection
Method: as §1

92US657 (clade B, R5) = test: Primary HIV-1 isolate infection of PBMC, p24 ELISA; assay type: cell-based; details: p24 production, 7 days post infection
Method: as §1

93IN101 (clade C, R5) = test: Primary HIV-1 isolate infection of PBMC, p24 ELISA; assay type: cell-based; details: p24 production, 7 days post infection
Method: as §1

NL4-3 (N42S) = assay type: cell-based, HIV-1; details: T20-sensitive (S) virus, MT-2 cells, p24, fourth day; read-out: IC50 (Mean ± SD)
Method: (§2) Two T20-sensitive and five T20-resistant strains with well defined genetic mutations conferring the resistance were used in this experiment (Rimsky, L. T., et al. J.VIROL. 1998; 72: 986-993). Briefly, 1×10^4 MT-2 cells were infected with HIV-1 isolates at 100 TCID50 (50% tissue culture infective dose) in 200 μl RPMI 1640 medium containing 10% FBS in the presence or absence of FS-01 at graded concentrations overnight. Then the culture supernatants were removed and fresh media without FS-01 were added. On the fourth day post-infection, 100 μl of culture supernatants were collected from each well, mixed with equal volumes of 5% Triton X-100 and assayed for p24 antigen by ELISA.

NL4-3 (V38A/N42D) = assay type: cell-based, HIV-1; details: T20-resistant (R) virus, MT-2 cells, p24, fourth day; read-out: IC50 (Mean ± SD)
Method: as §2

NL4-3 (V38A/N42T) = assay type: cell-based, HIV-1; details: T20-resistant (R) virus, MT-2 cells, p24, fourth day; read-out: IC50 (Mean ± SD)
Method: as §2

NL4-3 (V38A) = assay type: cell-based, HIV-1; details: T20-resistant (R) virus, MT-2 cells, p24, fourth day; read-out: IC50 (Mean ± SD)
Method: as §2

NL4-3 (parental) = assay type: cell-based, HIV-1; details: T20-sensitive (S) virus, MT-2 cells, p24, fourth day; read-out: IC50 (Mean ± SD)
Method: as §2

NL4-3 (N42T/N43K) = assay type: cell-based, HIV-1; details: T20-resistant (R) virus, MT-2 cells, p24, fourth day; read-out: IC50 (Mean ± SD)
Method: as §2

NL4-3 (V38E/N42S) = assay type: cell-based, HIV-1; details: T20-resistant (R) virus, MT-2 cells, p24, fourth day; read-out: IC50 (Mean ± SD)
Method: as §2

[1] = system: HIV-1IIIB-mediated cell-cell fusion (H9/HIV-1IIIB-infected cells with MT-2 cells); test: Dye transfer assay of HIV-1 mediated cell-cell fusion; assay type: cell-based; details: 37° C. for 2 h; read-out: IC50, inhibition of cell-cell fusion
Method: A dye transfer assay was used for detection of HIV-1 mediated cell-cell fusion as previously described in (Jiang, S., et al. Antimicrob.Agents Chemother. 2004; 48: 4349-4359. In brief, H9/HIV-1IIIB-infected cells were labeled with a fluorescent reagent, Calcein-AM (Molecular Probes, Inc., Eugene, OR) and then incubated with MT-2 cells (ratio =1:5) in 96-well plates at 37° C. for 2 h in the presence or absence of peptides. The fused and unfused calcein-labeled HIV-1-infected cells were counted under an inverted fluorescence microscope (Zeiss, Germany) with an eyepiece micrometer disc. The inhibition percent of cell-cell fusion and the IC50 values were calculated as described. […] The inhibitory activity of FS-01 on HIV-1-mediated infection was conducted too.

POPC LUVs = test: Isothermal titration calorimetry (ITC), peptide-lipid binding; details: LUVs injected into peptide solution
Method: So, the POPC LUV liposome system was employing to investigate the binding activity of FS-01 to lipid membranes. Large unilamellar vesicles (LUVs) of 1-palmitoyl-2-oleoyl-sn-glycero-3-phosphocholine (POPC) liposome were prepared as previously described (Liu, S., et al. J.BIOL.CHEM. 2007; 282: 9612-9620). Briefly, 20 mg of POPC stock solution was dried under a stream of nitrogen and stored in vacuum overnight to completely remove trace amounts of organic solvent. The dried lipid film was suspended by vortexing in 2 mL PBS buffer. The resultant multilamellar vesicle suspension was freeze-thawed for 5 cycles and then successively extruded through two stacked polycarbonate filters (0.1 μm) 13 times using an Avanti miniextruder.
Solutions were degassed under vacuum prior to use. LUVs of POPC were injected into the chamber containing a peptide solution or buffer only (as a control). The heats generated in control experiments by injecting lipid vesicles into buffer without a peptide were subtracted from the heats produced in the corresponding peptide-lipid binding experiments. Data acquisition and analyses were performed using MicroCal's Origin software (Version 7.0).

enfuvirtide showed an IC50 (92TH009 (clade E, R5); read-out: IC50 (Mean ± SD)) of 221 ± 58.3 nM, an IC90 (92TH009 (clade E, R5); read-out: IC90 (Mean ± SD)) of 724 ± 56.6 nM and an IC50 (94UG103 (clade A, X4R5); read-out: IC50 (Mean ± SD)) of 83.8 ± 12.1 nM. It also gave an IC90 (94UG103 (clade A, X4R5); read-out: IC90 (Mean ± SD)) of 151 ± 8.8 nM, an IC50 (93BR020 (clade F, X4R5); read-out: IC50 (Mean ± SD)) of 73.7 ± 8.57 nM and an IC90 (93BR020 (clade F, X4R5); read-out: IC90 (Mean ± SD)) of 204 ± 28 nM. It also gave an IC50 (92UG001 (clade D, X4R5); read-out: IC50 (Mean ± SD)) of 185 ± 23.3 nM, an IC90 (92UG001 (clade D, X4R5); read-out: IC90 (Mean ± SD)) of 501 ± 70.8 nM and an IC50 (92US657 (clade B, R5); read-out: IC50 (Mean ± SD)) of 41.5 ± 8.76 nM. It also gave an IC90 (92US657 (clade B, R5); read-out: IC90 (Mean ± SD)) of 177 ± 15.9 nM, an IC50 (93IN101 (clade C, R5); read-out: IC50 (Mean ± SD)) of 47.2 ± 4.73 nM and an IC90 (93IN101 (clade C, R5); read-out: IC90 (Mean ± SD)) of 130 ± 16.8 nM. It also gave an IC50 (NL4-3 (N42S)) of 26.9 ± 13 nM, an IC50 (NL4-3 (V38A/N42D)) greater than 2000 nM and an IC50 (NL4-3 (V38A/N42T)) greater than 2000 nM. It also gave an IC50 (NL4-3 (V38A)) greater than 2000 nM, an IC50 (NL4-3 (parental)) of 22 ± 1.19 nM and an IC50 (NL4-3 (N42T/N43K)) greater than 2000 nM. For the same substance, the IC50 (NL4-3 (V38E/N42S)) was greater than 2000 nM, the IC50 [1] was 21.4 nM and the “binding constant to POPC LUVs” value (POPC LUVs) was “about 5×10^4 M^−1”.
